Results from ChEMBL document CHEMBL4602712, “Synthesis and Evaluation of Noncovalent Naphthalene-Based KEAP1-NRF2 Inhibitors” (ACS Med Chem Lett, 2020).

Target: Kelch-like ECH-associated protein 1 (Homo sapiens, UniProt Q14145)
Experiment: Inhibition of FITC-9mer Nrf2 peptide binding to recombinant human KEAP1 Kelch domain (321 to 609 residues) expressed in Escherichia coli BL21 (DE3) by fluorescence polarization assay

Chain of Kelch-like ECH-associated protein 1 (Q14145 whole entry, the tested form may be a part): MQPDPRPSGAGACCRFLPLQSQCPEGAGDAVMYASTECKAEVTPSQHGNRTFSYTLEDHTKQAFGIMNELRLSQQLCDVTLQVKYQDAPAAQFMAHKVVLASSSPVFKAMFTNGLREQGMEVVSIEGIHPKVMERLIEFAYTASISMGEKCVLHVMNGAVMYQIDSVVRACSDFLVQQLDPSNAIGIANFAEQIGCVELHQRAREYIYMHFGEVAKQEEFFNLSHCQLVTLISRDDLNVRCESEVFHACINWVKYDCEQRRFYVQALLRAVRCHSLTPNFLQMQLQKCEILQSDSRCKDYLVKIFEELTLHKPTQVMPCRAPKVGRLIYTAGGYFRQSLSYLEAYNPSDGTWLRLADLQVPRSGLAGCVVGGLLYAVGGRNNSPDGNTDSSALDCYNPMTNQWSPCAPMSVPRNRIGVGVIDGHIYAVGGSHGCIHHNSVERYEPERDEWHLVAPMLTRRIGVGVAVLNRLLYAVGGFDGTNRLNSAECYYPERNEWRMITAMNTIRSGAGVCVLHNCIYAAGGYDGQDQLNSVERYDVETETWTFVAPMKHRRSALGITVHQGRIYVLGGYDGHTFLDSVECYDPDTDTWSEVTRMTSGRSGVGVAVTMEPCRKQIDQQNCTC

`COc1ccc(S(=O)(=O)Cc2ccc(CS(=O)(=O)c3ccc(OC)cc3)c3ccccc23)cc1` was tested, and the IC50 was > 25 µM.
In the case of `COc1ccc(S(=O)(=O)Nc2ccc(CCC(=O)O)c3ccccc23)cc1`, the IC50 is reported as > 25 µM.
With `COc1ccc(S(=O)(=O)Nc2ccc(/C=C/C(=O)O)c3ccccc23)cc1` the IC50 was > 25 µM.
